These results are taken from patent US9796687B2, “S-substituted quinazolines and their therapeutic applications for the treatment of diseases mediated by PDE7” (Consejo Superior De Investigaciones Cientificas (CSIC), priority 2016, dated 2017).

One series concerns the target PDE7A1 (Homo sapiens (Human), UniProt Q13946). Briefly: PDE7 inhibition, commercial phosphodiesterase activity kit ([3H]cAMP, SPA). Type of series: biochemical. The method, then:
Measurement of PDE7 inhibition was carried out using a commercial phosphodiesterase activity measurement kit.
Some of the compounds of the present invention (including those synthesised in Example 1) were evaluated. For this purpose, said compounds were incubated (in a range of concentrations from 0.1 nM to 100 μM) in the presence of 0.02 U/well of PDE7A1 and 0.05 μCi of [^3H] cAMP, for 20 minutes at 30° C. in the assay buffer supplied with the kit (total volume per well=100 μL). Once this time had elapsed, 50 μL of a 20 mg/mL suspension of SPA glass silicate microspheres were added and kept in agitation at ambient temperature for 60 minutes. After allowing the plate to rest for 20 minutes, the radioactivity was tested in a scintillation detector. All the assays included two points in the absence of PDE7A1 (blank/negative control) and two points with PDE7A1 in the absence of inhibitors (positive control).
The data were adjusted with a software program using non-linear adjustment.

A further series deals with PDE4D3 (Homo sapiens (Human), UniProt Q08499). Briefly: PDE4D3 inhibition. The series is classed as biochemical.
For the next series, the target named is PDE4B2 (Homo sapiens (Human), UniProt Q07343). Briefly: PDE4B2 inhibition. Type of series: biochemical.
A short description of series [1]: Parallel artificial membrane permeability assay (PAMPA) for CNS / blood-brain barrier permeability. The following applies: pH 7.4. (In PAMPA a lipid-coated filter parts donor from acceptor wells.)
Experimental: (§1) PDVF membrane filters were used for filtering the samples (diameter 30 mm, pore size 0.45 μm).
(§2) Ten reference compounds were selected whose passage across the blood-brain barrier is known and in the public domain, in order to validate the experiment. […] The solutions were filtered. Afterwards, 180 μL of a solution of PBS/ethanol (70/30) were added to each well of the acceptor plate. The donor plate was impregnated with 4 μL of a solution of porcine brain lipid dissolved in dodecane (20 mg mL-1).
(§3) After 5 minutes, 180 μL of solution of each compound were added to this plate.
(§4) The donor plate was then placed on the acceptor plate, forming a kind of sandwich, and left to incubate for 2 h and 30 min at 25° C. The compounds passed by passive transport from the donor plate, through the porcine brain lipid, to the acceptor plate. After 2 h and 30 min, the donor plate was carefully removed.
(§5) The concentration and absorbance, both of the commercial compounds and of the compounds of the present invention that were evaluated in the acceptor and donor plates, were determined using a UV absorbance reader. Each sample was analysed at different wavelengths (between 3 and 5 absorbance minima and maxima were chosen for each compound at wavelength valves of between 220 nm and 450 nm), in 3 wells and in a minimum of 2 independent experiments. […] The measurements were carried out on the acceptor plate.
Another series is described as follows: in vitro. The following applies: PAMPA, pH 7.4.
Another series has as its target hERG channel (Homo sapiens (Human), UniProt Q12809). Briefly: Toxicity on the cardiac hERG channel, FluxOR thallium fluorescence assay in HEK293 cells. The series is classed as cell-based. The text has this:
The hERG potassium channel contributes in the final phase of the action potential, bringing the cell to its resting state. If a drug suppresses the activity of the channel, it can produce a prolongation of the […], known as “long QT syndrome”, resulting in a fatal ventricular arrhythmia.
To characterise the behaviour of the hERG potassium channel in the presence of the compounds of the present invention, use was made of an assay based on a fluorescent probe (FluxOR®, Life Technologies) with high affinity for thallium, an indicator of the activity of the potassium ion channel. When the potassium channels open in response to a stimulus, the influx of thallium from the external environment is detected by the probe. The fluorescent signal is therefore proportional to the number of open potassium channels in the cell. The FluxOR® is added in ester form without fluorescent emission capacity, thus preventing the emission of fluorescence outside the cell. When it enters the cell, the cytosol esterases activate the FluxOR®, so that it is capable of binding the thallium that passes into the cytoplasm through the hERG channel and of emitting fluorescence.
Black plates containing 96 wells treated with poly-D-lysine were seeded with HEK293 cells (deposit number ATCC CRL-1573) modified to stably express the hERG channel. […] After one hour of incubation of the fluorochrome with the cells at ambient temperature, the plates were washed with 50 μL of assay buffer. Subsequently, 20 μL of the compounds to be studied were added at a dilution of 1:200 (2 μL of compound/400 μL of assay buffer), in triplicate, on 12-point curves (1:2 dilutions of the compound in DMSO). […]. After 30 minutes of incubation, the plates were read in a FLIPR TETRA®, which added 5 μL of stimulus buffer (Tl2SO4+K2SO4). […]
(In general: hERG is a cardiac potassium channel; its block is linked to QT prolongation.)

Series [2] in a line: Pharmacokinetic studies in mice: exposure in plasma and brain. The following applies: for levels in plasma and brain 2 hours after administration (elimination): intraperitoneal or oral administration; for Kp / Tmax / Cmax: C57BL/6, mouse; for Kp: brain; for Tmax: plasma and brain; for Cmax: plasma.
Experimental: (§6) After the blood extraction, the mice of each group were sacrificed by asphyxia with CO2, in order to obtain the brain. The brains were washed in a cold solution, dried in filter paper, weighed and placed in polypropylene tubes. The brains were homogenised with a buffered solution of phosphate pH 7.4, so that the total volume of the homogenate was three times the weight of the brain. The samples were stored at −70° C. until their analysis.
(§7) The extraction procedure for the plasma/brain homogenate or plasma calibration standard/doped brain samples was the same: 100 μL of the internal standard (imipramine, 500 ng/mL) were added, prepared in acetonitrile, to 25 μL of sample (plasma/brain) or doped calibration standard, and agitated with a vortex agitator for 5 minutes. As a blank (negative control), only acetonitrile was added. The samples were centrifugated for 10 min at 15000 rpm (20600 g) at 4° C. 100 μL of each supernatant were transferred to 96-well plates for its analysis by liquid chromatography-tandem mass spectrometry (LC-MS/MS). The calibration standards were prepared by doping 10 μL of analyte (compound to be studied, 1 mg/mL) in 190 μL of virgin plasma/brain homogenate (and subsequent serial dilutions).
(§8) The pharmacokinetic study was performed based on the time-concentration data obtained for the plasma and brain, by means of non-compartmental analysis using version 5.2 of WinNonlin®. The areas under the concentration-time curve (AUClast and AUCinf) were calculated using the linear trapezoidal rule.
(§9) The only difference lay in the administration of the compounds, which was via the oral route, in a suspension consisting of Tween 80 0.1% v/v and sodium carboxymethyl cellulose (NaCMC) 0.5% w/v in water. The compounds were administered at a dosage of 10 mg/kg, by gastric intubation using a 22-gauge oral feeding needle.
Another series is described as follows: in vivo. The following applies: C57BL/6, mouse.
The mark [3] stands for this setting: mice, intraperitoneal administration, 10 mg/kg.
Where [4] appears, read: mice, oral administration, 10 mg/kg.
The mark [5] stands for this setting: mice, oral administration, 10 mg/kg, Tmax 0.5 h.

Each structure is given as a SMILES string. Like-named read-outs stand apart in the source and are kept apart here. Some results are limits rather than exact numbers.

Chain of PDE4B2 (Q07343 other isoform, or with tags, fused parts or gaps, species assumed): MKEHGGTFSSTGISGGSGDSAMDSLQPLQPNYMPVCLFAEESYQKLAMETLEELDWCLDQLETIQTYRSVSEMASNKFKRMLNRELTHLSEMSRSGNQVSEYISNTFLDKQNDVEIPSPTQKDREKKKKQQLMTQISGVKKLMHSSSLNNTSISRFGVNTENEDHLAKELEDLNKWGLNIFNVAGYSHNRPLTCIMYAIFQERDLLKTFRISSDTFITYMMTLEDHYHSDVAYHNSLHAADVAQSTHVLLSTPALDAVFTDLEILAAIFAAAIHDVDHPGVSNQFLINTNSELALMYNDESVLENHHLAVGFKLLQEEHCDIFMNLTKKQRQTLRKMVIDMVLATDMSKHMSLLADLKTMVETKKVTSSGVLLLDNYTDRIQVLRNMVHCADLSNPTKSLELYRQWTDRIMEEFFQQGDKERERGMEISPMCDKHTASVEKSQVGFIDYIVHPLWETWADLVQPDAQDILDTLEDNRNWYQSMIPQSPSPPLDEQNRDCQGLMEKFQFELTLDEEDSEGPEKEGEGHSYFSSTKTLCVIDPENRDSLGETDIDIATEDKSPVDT
Chain of PDE7A1 (Q13946 whole entry, species assumed): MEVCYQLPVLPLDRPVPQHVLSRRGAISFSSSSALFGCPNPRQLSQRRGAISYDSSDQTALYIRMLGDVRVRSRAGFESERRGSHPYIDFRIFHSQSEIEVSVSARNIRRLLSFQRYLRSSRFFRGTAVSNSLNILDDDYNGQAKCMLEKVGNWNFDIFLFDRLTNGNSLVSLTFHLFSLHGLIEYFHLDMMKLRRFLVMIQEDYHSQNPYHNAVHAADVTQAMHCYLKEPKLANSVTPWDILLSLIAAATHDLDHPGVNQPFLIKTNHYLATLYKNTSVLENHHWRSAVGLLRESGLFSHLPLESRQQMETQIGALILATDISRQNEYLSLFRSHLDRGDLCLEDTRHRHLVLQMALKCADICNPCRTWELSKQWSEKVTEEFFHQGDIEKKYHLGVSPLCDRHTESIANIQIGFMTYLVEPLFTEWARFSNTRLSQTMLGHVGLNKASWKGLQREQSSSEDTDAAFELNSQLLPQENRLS
Chain of hERG channel (Q12809 whole entry): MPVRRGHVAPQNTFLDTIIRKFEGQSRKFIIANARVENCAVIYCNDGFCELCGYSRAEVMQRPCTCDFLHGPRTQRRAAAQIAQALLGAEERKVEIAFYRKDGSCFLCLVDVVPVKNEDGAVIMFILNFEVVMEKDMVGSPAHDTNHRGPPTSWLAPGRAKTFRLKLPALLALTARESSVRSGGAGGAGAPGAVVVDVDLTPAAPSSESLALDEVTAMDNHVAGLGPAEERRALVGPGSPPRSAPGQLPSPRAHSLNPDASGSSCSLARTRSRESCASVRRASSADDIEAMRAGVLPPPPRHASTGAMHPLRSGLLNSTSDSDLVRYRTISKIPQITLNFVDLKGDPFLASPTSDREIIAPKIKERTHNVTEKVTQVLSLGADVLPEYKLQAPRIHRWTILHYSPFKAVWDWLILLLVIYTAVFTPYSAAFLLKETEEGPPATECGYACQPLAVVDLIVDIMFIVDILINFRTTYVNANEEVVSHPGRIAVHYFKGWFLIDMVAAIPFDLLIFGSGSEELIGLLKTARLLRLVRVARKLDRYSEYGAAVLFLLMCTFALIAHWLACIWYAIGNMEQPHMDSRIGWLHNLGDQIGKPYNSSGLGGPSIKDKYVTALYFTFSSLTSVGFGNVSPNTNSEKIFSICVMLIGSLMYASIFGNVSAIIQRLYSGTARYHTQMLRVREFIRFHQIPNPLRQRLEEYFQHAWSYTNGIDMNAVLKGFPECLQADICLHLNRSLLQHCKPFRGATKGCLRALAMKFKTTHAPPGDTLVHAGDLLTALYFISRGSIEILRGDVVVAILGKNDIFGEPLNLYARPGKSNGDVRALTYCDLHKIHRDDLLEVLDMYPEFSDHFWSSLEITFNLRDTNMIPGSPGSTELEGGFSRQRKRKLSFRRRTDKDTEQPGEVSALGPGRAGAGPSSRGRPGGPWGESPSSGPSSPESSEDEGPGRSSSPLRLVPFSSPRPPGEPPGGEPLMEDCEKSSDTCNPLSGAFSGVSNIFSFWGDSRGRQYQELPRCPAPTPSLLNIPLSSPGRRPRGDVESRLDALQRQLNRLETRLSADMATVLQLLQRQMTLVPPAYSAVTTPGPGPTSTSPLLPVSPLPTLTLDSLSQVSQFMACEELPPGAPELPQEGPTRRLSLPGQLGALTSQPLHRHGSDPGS
Chain of PDE4D3 (Q08499 other isoform, or with tags, fused parts or gaps): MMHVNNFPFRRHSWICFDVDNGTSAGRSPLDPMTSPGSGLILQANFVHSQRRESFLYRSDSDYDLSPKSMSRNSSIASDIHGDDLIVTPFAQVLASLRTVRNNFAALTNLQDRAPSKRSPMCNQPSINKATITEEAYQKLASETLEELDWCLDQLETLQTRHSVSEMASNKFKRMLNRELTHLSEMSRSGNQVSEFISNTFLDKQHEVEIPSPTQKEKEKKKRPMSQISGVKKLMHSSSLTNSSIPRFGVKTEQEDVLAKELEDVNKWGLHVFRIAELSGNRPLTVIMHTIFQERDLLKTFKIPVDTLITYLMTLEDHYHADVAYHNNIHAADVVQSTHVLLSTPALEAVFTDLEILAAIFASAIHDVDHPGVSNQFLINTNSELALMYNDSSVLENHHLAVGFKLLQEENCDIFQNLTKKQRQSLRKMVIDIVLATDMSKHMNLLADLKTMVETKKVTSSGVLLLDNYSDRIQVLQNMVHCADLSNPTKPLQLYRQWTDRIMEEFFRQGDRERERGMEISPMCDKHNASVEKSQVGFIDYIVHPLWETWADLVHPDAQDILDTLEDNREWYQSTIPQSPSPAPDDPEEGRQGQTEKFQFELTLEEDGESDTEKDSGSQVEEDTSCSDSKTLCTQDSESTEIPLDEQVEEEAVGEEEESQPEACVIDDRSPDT
Experimental for in vitro: as §1, §2, §3, §4, §5
Experimental for in vivo: as §6, §7, §8, §9

On to `O=c1c2ccccc2nc(SCC2CCCCC2)n1-c1ccccc1` [Compound 1, 2-Cyclohexylmethylthio-3-phenyl-4-oxo-3,4-dihydroquinazoline], for which, at PDE7A1 (read-out: PDE7A IC50), the IC50 was 200 nM. Besides, the inhibition (commonly the percentage by which the read-out fell short of the control) at 10 µM on PDE4D3 came to 49%; at PDE4B2 it was 18%.

In the case of `CN1C(C(=O)Nc2ccccn2)=C(O)c2ccccc2S1(=O)=O` [Piroxicam, piroxicam], in series [1], the Papp (as a rule, a coefficient for how fast a substance crosses the barrier) at 2.5 h is 0.2 ± 0.1 ×10⁻⁶ cm/s.

On to `CCSc1nc2ccccc2c(=O)n1-c1c(F)cccc1F` [Compound 17, 2-Ethylthio-3-(2,6-difluorophenyl)-4-oxo-3,4-dihydroquinazoline], for which the IC50 at PDE7A1 (read-out: PDE7A IC50) turned out to be 6990 nM. The apparent permeability coefficient (Papp) at 2.5 h in the series “in vitro” came out at 4.8 ± 0.6 ×10⁻⁶ cm/s.

As for `O=c1c2ccccc2nc(SCc2ccccn2)n1-c1ccccc1` [Compound 23, 3-Phenyl-2-(2-pyridylmethylthio)-4-oxo-3,4-dihydroquinazoline], the IC50 on PDE7A1 (read-out: PDE7A IC50) amounted to 800 nM. Moreover, in the series “in vitro”, the Papp at 2.5 h was 12.4 ± 2.2 ×10⁻⁶ cm/s.

As to `O=c1c2ccccc2nc(SCc2ccccc2)n1-c1ccccc1` [Compound 21, 2-Benzylthio-3-phenyl-4-oxo-3,4-dihydroquinazoline], the IC50 on PDE7A1 (read-out: PDE7A IC50) was 600 nM. Further, the results for the inhibition at 10 µM on PDE4D3 and on PDE4B2 were 38% and 28%, respectively.

As for `Cc1cccc2c(=O)n(-c3c(F)cccc3F)c(SCC(C)(C)C)nc12` [Compound 6, 3-(2,6-Difluorophenyl)-8-methyl-2-neopentylthio-4-oxo-3,4-dihydroquinazoline], the IC50 on PDE7A1 (read-out: PDE7A IC50) was 8670 nM.

Turning to `CC(C)(C)CSc1nc2c(Cl)cccc2c(=O)n1-c1ccccc1` [Compound 11, 8-Chloro-3-phenyl-2-neopentylthio-4-oxo-3,4-dihydroquinazoline], the IC50 at PDE7A1 (read-out: PDE7A IC50) is 1200 nM.

Take `Cc1ccccc1-n1c(SCc2cccnc2)nc2ccccc2c1=O` [Compound 26, 3-(2-Methylphenyl)-2-(3-pyridylmethylthio)-4-oxo-3,4-dihydroquinazoline]: on PDE7A1 (read-out: PDE7A IC50), the IC50 is 120 nM. In the series “in vitro”, this compound displayed a Papp at 2.5 h of 20.1 ± 0.1 ×10⁻⁶ cm/s.

For `CC(C)(C)CSc1nc2ccccc2c(=O)n1-c1ccccc1` [Compound 5, 3-Phenyl-2-neopentylthio-4-oxo-3,4-dihydroquinazoline], the IC50 on hERG channel was above 30000 nM; on PDE7A1 (Table 3, read-out: PDE inhibitory activity PDE7A CI50), 100 nM; on PDE7A1 (read-out: PDE7A IC50) it was 100 nM. Besides, on hERG channel (deduced from hERG data), the cardiotoxic potential result is given as “did not have any cardiotoxic potential”. Moreover, the “Cmax/PDE7 IC50 ratio, brain” value is recorded as 56.5 in series [2] (setting [3]) and 16.4 in series [2] (setting [4]). Further, the “Cmax/PDE7 IC50 ratio, plasma” value in series [2] (setting [3]) is on record as 23.1; in series [2] (setting [4]), 13.8. For the same compound, the “Brain Cmax” value was 5650 nM in series [2] (mice, intraperitoneal administration, 10 mg/kg, Tmax 0.25 h) and 1640 nM in series [2] (setting [5]). In series [2] (mice, 10 mg/kg), the “levels in plasma and brain 2 hours after administration (elimination)” value is reported as “still considerable levels”. In addition, the Kp was above 1 in the series “in vivo”; 2.45 in the series “in vivo” (ip, 10 mg/kg); 1.19 in the series “in vivo” (po, 10 mg/kg). The Cmax (as a rule, the peak of the concentration-time curve) in the series “in vivo” (ip, 10 mg/kg) was 2310 nM; in the series “in vivo” (po, 10 mg/kg) it was 1380 nM. In addition, the Tmax – broadly, the time at which the peak concentration occurs – in “in vivo” (ip, 10 mg/kg) stood at 15 min; in the series “in vivo” (po, 10 mg/kg) it was 30 min. Moreover, the results for the inhibition at 10 µM against PDE4D3 and on PDE4B2 were 37% and 29%, respectively.

On to `O=c1c2ccccc2nc(SCc2ccncc2)n1-c1ccccc1` [Compound 27, 3-Phenyl-2-(4-pyridylmethylthio)-4-oxo-3,4-dihydroquinazoline], for which the IC50 at PDE7A1 (read-out: PDE7A IC50) is 2600 nM. In “in vitro”, this compound yielded a Papp at 2.5 h of 15.9 ± 1.3 ×10⁻⁶ cm/s.

Consider `O=c1c2ccccc2nc(SCC2CC2)n1-c1ccccc1Br` [Compound 14, 3-(2-Bromophenyl)-2-cyclopropylmethylthio-4-oxo-3,4-dihydroquinazoline], for which the IC50 on PDE7A1 (read-out: PDE7A IC50) was determined as 9440 nM. The Papp at 2.5 h in “in vitro” turned out to be 1.9 ± 0.3 ×10⁻⁶ cm/s.

`O=c1c2ccccc2nc(SCc2cccnc2)n1-c1ccccc1` [Compound 24, 3-Phenyl-2-(3-pyridylmethylthio)-4-oxo-3,4-dihydroquinazoline]: on PDE7A1 (read-out: PDE7A IC50), the IC50 was determined as 700 nM. In the series “in vitro”, the Papp at 2.5 h stood at 18.6 ± 1.7 ×10⁻⁶ cm/s.

For the compound `O=c1c2ccccc2nc(SCc2ccc3ccccc3c2)n1-c1ccccc1` [Compound 28, 3-Phenyl-2-(2-naphthylmethylthio)-4-oxo-3,4-dihydroquinazoline], the IC50 on PDE7A1 (read-out: PDE7A IC50) stood at 90 nM.

Turning to `O=c1c2ccccc2nc(SCC2CCCCC2)n1-c1ccccc1Br` [Compound 2, 3-(2-Bromophenyl)-2-cyclohexylmethylthio-4-oxo-3,4-dihydroquinazoline], the IC50 at PDE7A1 (read-out: PDE7A IC50) was 2110 nM.

Turning to `Cc1cccc2c(=O)n(-c3c(F)cccc3F)c(SCC3CC3)nc12` [Compound 15, 2-Cyclopropylmethylthio-3-(2,6-difluorophenyl)-8-methyl-4-oxo-3,4-dihydroquinazoline], on PDE7A1 (read-out: PDE7A IC50), the IC50 was 4560 nM. Moreover, the Papp at 2.5 h in “in vitro” is 1.3 ± 0.9 ×10⁻⁶ cm/s.

As to `CCSc1nc2c(Cl)cccc2c(=O)n1-c1c(F)cccc1F` [Compound 18, 8-Chloro-2-ethylthio-3-(2,6-difluorophenyl)-4-oxo-3,4-dihydroquinazoline], on PDE7A1 (read-out: PDE7A IC50), the IC50 is 2440 nM.

For the compound `O=c1[nH]c(SCc2cccnc2)nc2c(Cl)cccc12` [Compound 25, 8-Chloro-2-(3-pyridylmethylthio)-4-oxo-3,4-dihydroquinazoline], the IC50 on PDE7A1 (read-out: PDE7A IC50) stood at 540 nM. In the series “in vitro”, this compound registered a Papp at 2.5 h of 12.1 ± 3.9 ×10⁻⁶ cm/s.

As for `CCSc1nc2ccccc2c(=O)n1-c1ccccc1` [Compound 16, 2-Ethylthio-3-phenyl-4-oxo-3,4-dihydroquinazoline], the IC50 on PDE7A1 (read-out: PDE7A IC50) was 6900 nM. This compound came in with an apparent permeability (Papp) at 2.5 h in the series “in vitro” of 7.9 ± 1.2 ×10⁻⁶ cm/s.

For the compound `S=c1[nH]c2ccccc2c(=S)n1-c1ccccc1` [TC3.6, 3-Phenyl-2,4-dithioxo-1,2,3,4-tetrahydroquinazoline], at hERG channel (stimulated the opening of the potassium channel, HEK293 hERG, FluxOR), the IC50 turned out to be 5190 nM. For the same compound, the Kp in series [2] (ip, 10 mg/kg) is 0.51; in series [2] (other: intraperitoneal and oral, 10 mg/kg) it was below 1; in series [2] (po, 10 mg/kg) it was 0.43. The Tmax was found to be 15 min in series [2] (ip, 10 mg/kg) and 30 min in series [2] (po, 10 mg/kg). Also, the Cmax in series [2] (ip, 10 mg/kg) worked out at 6790 nM; in series [2] (po, 10 mg/kg) it was 860 nM. In addition, the “Cmax/PDE7 IC50 ratio, brain” value is 3.33 in series [2] (setting [3]) and 0.36 in series [2] (setting [4]). Further, the “Cmax/PDE7 IC50 ratio, plasma” value in series [2] (setting [3]) amounted to 6.53; in series [2] (setting [4]), 0.83. Besides, the “levels in plasma and brain 2 hours after administration (elimination)” value in series [2] (mice, 10 mg/kg) was “almost eliminated”. The “Brain Cmax” value amounted to 370 nM in series [2] (setting [5]) and 3460 nM in series [2] (mouse, in vivo).

For the compound `Cc1ccccc1-n1c(SCC(C)(C)C)nc2ccccc2c1=O` [Compound 13, 3-(2-Methylphenyl)-2-neopentylthio-4-oxo-3,4-dihydroquinazoline], the IC50 at PDE7A1 (read-out: PDE7A IC50) came to 1850 nM. The Papp at 2.5 h in the series “in vitro” stood at 3.9 ± 0.7 ×10⁻⁶ cm/s.
